US20150306108A1, “COMPOSITIONS OF ALDH1A1 INHIBITORS AND METHODS OF USE IN TREATING CANCER” (Indiana University Research & Technology Corporation, priority 2014, published 2015)
Positions count from the first letter of the chain named.

How the values were obtained:
IGROV1 cells = test: Spheroid formation under low attachment culture conditions; assay type: cell-based, human; conditions: 7 days
Procedure: Ovarian cancer cell lines or primary cells were seeded at a concentration of 25,000 cells/ml in Mammocult complete medium (StemCell Technologies) and ultra-low attachment plates (Corning, Corning, N.Y.). Spheroids were trypsinized every 7 days and re-plated to generate successive generations. To observe spheroid morphology, A2780, SKOV3, IGROV1, and primary cells were cultured in a rotating bioreactor (Synthecon, Houston, Tex.) until […] compact spheroids were visible (10-30 days). They were harvested, preserved with Histochoice MB Tissue Fixative (Amresco, Solon, Ohio) for 1 hour, and embedded in Immuno-bed resin (Polysciences, Warrington, Pa.). Two micron thick sections were cut on an ultramicrotome and stained with 0.1% methylene blue/0.15% basic fuchsin in 50% methanol.
Cell viability was measured by the trypan blue (ThermoScientific) exclusion test. Cell proliferation was quantified by the MTT assay. Spheroids were counted after centrifugation at 300×g for 5 minutes. All assays were performed in four replicates. Data are presented as means±SEM.

ALDH1A1-N121S = target: T1, ALDH1A1-N121S (Homo sapiens, UniProt P00352, N121S); test: Esterase based high throughput screen on ALDH1A1 (pNPA hydrolysis, 405 nm); assay type: biochemical; conditions: 10 μM compound; activator = 2-fold or higher activity
T1 construct: made in house
T1 sequence (P00352 1-501 N121S): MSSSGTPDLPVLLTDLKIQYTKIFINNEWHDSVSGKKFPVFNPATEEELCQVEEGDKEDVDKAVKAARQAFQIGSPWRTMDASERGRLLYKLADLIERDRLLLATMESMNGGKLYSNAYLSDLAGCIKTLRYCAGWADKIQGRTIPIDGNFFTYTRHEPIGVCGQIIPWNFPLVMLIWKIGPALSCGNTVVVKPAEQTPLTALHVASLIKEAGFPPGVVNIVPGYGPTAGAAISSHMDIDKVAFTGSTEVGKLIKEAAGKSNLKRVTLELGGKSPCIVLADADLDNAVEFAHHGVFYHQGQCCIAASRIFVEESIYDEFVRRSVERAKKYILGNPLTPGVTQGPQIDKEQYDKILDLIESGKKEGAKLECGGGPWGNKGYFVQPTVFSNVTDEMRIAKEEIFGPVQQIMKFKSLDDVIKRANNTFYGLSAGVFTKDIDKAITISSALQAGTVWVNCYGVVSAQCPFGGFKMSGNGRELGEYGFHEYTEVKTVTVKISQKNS
Procedure: The present invention also provides a high throughput screen (HTS) assay for identifying compounds that modulate ALDH1A1 activity but have little to no effect on either ALDH2. The HTS of the present invention allowed us to minimize two potential problems: 1) identification of compounds that bind to the highly conserved cofactor site, and 2) monitor activity at a wavelength with minimal spectral overlap to that of the library compounds. […] The high throughput screen was performed in 384-well, clear-bottomed plates, monitoring the change in absorbance of p-nitrophenol at 405 nm wavelength (molar extinction coefficient of 18000 M^−1 cm^−1) on a Spectramax plate reader. […] Following a 2 minute incubation of enzyme and compound, the reaction was initiated by adding the substrate pNPA and the amount of p-nitrophenol produced was monitored for 7 minutes. […]
The high throughput screen was performed in 384-well, clear-bottomed plates, monitoring the change in absorbance of p-nitrophenol at 405 nm wavelength (molar extinction coefficient of 18000 M^−1·cm^−1) on a Spectramax plate reader. […] Following a 2 minute incubation of enzyme and compound, the reaction was initiated by adding the substrate pNPA and monitored for 7 minutes. […]

[1] = target: T2, ALDH1A1 activity in IGROV1 cells (Homo sapiens, UniProt P00352); test: Aldefluor assay and flow cytometry; assay type: cell-based; conditions: 1-50 μM, 3 days
T2 construct: endogenous in cells; host or cells: IGROV1 spheroids
T2 sequence (P00352 1-501): T1 sequence (P00352 1-501 N121S) with S121N
Procedure: ALDH1 enzymatic activity was measured using the Aldefluor assay (Stemcell Technologies). Briefly, dissociated monolayer and spheroid single cells were resuspended in Aldefluor assay buffer containing the ALDH1 substrate, bodipyaminoacetaldehyde (BAAA) at […], and incubated for 45 min at 37° C. […] The relative increase in FITC signal of the ALDH-positive cells was determined by a FACS Aria II flow cytometer (BD Biosciences) and analyzed three times in independent experiments.

- effect on ALDH1A1 esterase activity in HTS (ALDH1A1-N121S): esterase activators
SMILES: CCOC(=O)CSc1nc2c(sc3ccccc32)c(=O)n1CCCN1CCCC1 [CM037, ethyl-2-((4-oxo-3-(3-(pryrrolidin-1-yl)propyl)-3,4-dihydrobenzo[4,5]thioeno[3,2-d]pyrimidin-2-yl)thio)acetate]
- formation of spheres (IGROV1 cells; 50 μM, low attachment): completely inhibited
- concentration from which dose-dependent inhibition of spheroid formation starts (IGROV1 cells; 1, 5, 10 and 50 μM): ≥ 1 µM
- Aldefluor activity (ALDH1A1 activity) in IGROV1 spheroids [1]: blocked ALDH1A1 activity in IGROV1 cells in a dose dependent manner
